# Tests used:
# [1] = test system: HOP-92 lung cancer cell lines; assay: Cell survival, colorimetric MTT assay, HOP-92; format: cell-based, human; conditions: 72 hours; for reduced the survival of HOP92 cell lines by: 100 μM
# Procedure: 1) Against the lung cancer cell lines: The effect of the racemic mixture of 8-HHA and that of the individual enantiomers, namely S and R enantiomers, were examined on the survival of HOP-92 lung cancer cell lines. The cell viability was examined in the exponential growth phase with 100 μM of 8-HHA for 72 hours using colorimetric MTT assay. In separate assays, HOP-92 cells were treated with different concentrations of the S-enantiomer of 8-HHA ranging from 20-100 μM for 72 hours.
# PARP [2] = assay: PARP cleavage in PLC-5 liver cancer cells; format: cell-based; conditions: PLC-5 cells, 100 μM
# From the text: (§1) PARP cleavage is considered a specific and well established marker of apoptosis. During apoptosis, FAS receptor undergoes down regulation, which is considered as an established indicator of apoptosis. Apoptosis can be induced by a pathway stimulated by FAS receptor binding to FAS ligand and is called extrinsic mechanism. Apoptosis by this pathway results in the reduction of FAS receptor.
# (§2) 1) Against liver cancer cell lines: The effect of 8-HHA was examined on apoptosis in liver cancer cell lines.
# [3] = test system: Hep3B liver cancer cell line; assay: Cell survival, colorimetric MTT assay, Hep3B; format: cell-based; conditions: 100 μM, 72 hours
# Procedure: (§3) 2) Against the liver cancer cell lines: The effect of the racemic mixture of 8-HHA and that of the individual enantiomers, namely S and R enantiomers, were examined on survival of PLC/PRF/5 (also referred to as “PLC-5” or “PLC5”), Hep3B and SNU449 (also referred to as “SNU”) liver cancer cell lines. The cell viability was examined in the exponential growth phase with 100 μM of 8-HHA for 72 hours using colorimetric MTT assay. In separate assays, PLC-5 cells were treated with different concentrations of S-enantiomer of 8-HHA ranging from 20-100 μM for 72 hours.
# [4] = test system: SNU449 liver cancer cell line; assay: Cell survival, colorimetric MTT assay, SNU449; format: cell-based; conditions: 100 μM, 72 hours
# Procedure: as §3
# Bim1 = assay: Pro-apoptotic Bim1 in HOP92 cells; format: cell-based, human; conditions: 100 μM, 72 hours
# Procedure: Bim1 is a pro-apoptotic protein whose up regulation leads to apoptosis. HOP92 cell lines were treated with 100 μM of S-enantiomer of 8-HHA for 72 hours.
# FAS receptor [5] = assay: FAS protein levels in HOP-92 cells; format: cell-based, human; conditions: HOP92 cells, 100 μM, 72 hours
# Procedure: as §1
# 2) Against lung cancer cell lines: HOP-92 lung cancer cell lines were treated with 100 μM of (S)-8-HHA for 72 hours.
# FAS receptor [6] = assay: FAS receptor levels in PLC-5 cells; format: cell-based; conditions: 100 μM, 72 hours
# Procedure: as §1
# PLC-5 cell lines were treated with […] 100 μM for 72 hours.
# [7] = test system: PLC/PRF/5 liver cancer cell line; assay: Cell survival, colorimetric MTT assay, PLC/PRF/5; format: cell-based; conditions: 72 hours
# Procedure: as §3
# PARP [8] = assay: PARP cleavage in SNU liver cancer cells; format: cell-based; conditions: 100 μM
# From the text: as §1, §2
# HeLa cells = assay: HeLa cell viability by Alamar Blue assay; format: cell-based; conditions: 24, 48 and 72 hrs
# From the text: Assessment of cell viability by alamar blue reduction method is routinely used for illustrating cytotoxic potential of candidate drugs. Alamar blue detects cell viability by utilizing a blue non-fluorescent dye resazurin, which is converted to a pink fluorescent dye, resorufin by cellular metabolic intermediates. The fluorescent signal generated from the assay is proportional to the number of living cells in the sample. Confluent HeLa cells (70-80%) grown in T-75 flasks were detached using trypsin-EDTA. Following centrifugation, the cells pellet was resuspended in DMEM medium and counted using a hemocytometer. Cells were seeded into 96 well plate at a density of 10,000 cells/100 μl/well and incubated at 37° C./5% CO2 for 8 hrs. Media was removed and test compounds were added in the volume of 100 μl. […] At the end of 24, 48 & 72 hrs treatment with test compound, fluorescence was measured at 530 excitation and 590 nm emissions using a micro plate reader. Viability expressed as % control was plotted against drug concentration.
# The mean value of duplicate wells was calculated. […] The percentage of cell viability of test samples was calculated as:
# [formula] IC50 values were determined by nonlinear regression analysis (curve fit) of percent viability data against drug concentration using the sigmoidal dose-response (variable) equation (Graph Pad Prism 4 software).
Compound,reduced the survival of HOP92 cell lines by [1],PARP cleavage (PARP [2]),reduced the survival of Hep3B cell line by [3],"IC50 ([1]; Homo sapiens, HOP-92, 20-100 μM, read-out: 50% reduction in cell survival (IC50))",effect on survival of SNU cell line [4],Bim1 increase compared to the control sample (Bim1),FAS protein levels (FAS receptor [5]),FAS receptor levels compared to the control (FAS receptor [6]),reduced the survival of PLC-5 cell line by ([7]; 100 μM),"IC50 ([7]; Homo sapiens, PLC-5, 20-100 μM, read-out: 50% reduction in cell survival (IC50))",PARP cleavage (PARP [8]),"HeLa cell viability, result in words (HeLa cells)"
"CCCCCCCC[C@@H](O)CCCCCCC(=O)O [(R)-8-HHA, 8(R)-hydroxypalmitic acid]",13%,–,–,–,–,–,–,–,–,–,–,–
"CCCCCCCC[C@H](O)CCCCCCC(=O)O [(S)-8-HHA, 8(S)-hydroxypalmitic acid]",72%,resulted in the PARP cleavage,~75%,~90 µM,~75%,2 fold,reduction of FAS protein levels,substantial reduction in FAS receptor levels,~75%,~50 µM,resulted in the PARP cleavage,–
CC(C)(C)c1ccc(C(O)CCCN2CCC(C(O)(c3ccccc3)c3ccccc3)CC2)cc1 (stereo not shown) [Terfenadine],–,–,–,–,–,–,–,–,–,–,–,dose dependent inhibition
